Measured values from patent publication US20120035187A1 (priority 2009, published 2012).

Assays:
[1] = test system: hamsters with cerebellar ataxia; assay: Slant tolerance test in hamsters with cerebellar ataxia; type: in vivo, hamster; conditions: hamster with cerebellar ataxia; agent of Example 1, 0.5 ml/hamster intraperitoneally once a day for 56 days
From the text: (§1) Since NK-4 was confirmed to have a neurodegenerative inhibitory action in Experiment 1, hamsters with cerebellar ataxia (cerebellar ataxia is called “cerebellar A” and hamsters with cerebellar ataxia are called “hamsters with cerebellar A”, hereinafter) as a suitable model for human neurodegenerative diseases (e.g., spinal cerebellar degeneration) were subjected to examine the influence of NK-4 administration on their behaviors and brain tissues. Twenty-five hamsters with natural mutation (Nna1 inhibition), which are known to lose Purkinje's cells after three-weeks of age and then induce a spontaneous onset of kinetic motor ataxia after seven-weeks of age (see Akita K. et al., “J. Neurogenetics”, Vol. 21, pp. 19-29, 2007), had been fed at Hayashibara Biochemical Laboratories., Inc., Okayama, Japan, were randomly allocated to the test groups 1 to 5, five heads in each group, as shown in Table 2. Prior to the onset of cerebellar A (at three-weeks of age), PBS was started to administer to the hamsters in the test group 1 at a dose of 10 ml/kg/day. Prior to the onset of cerebellar A (at three-weeks of age), NK-4 was started to be administered to the hamsters in the test groups 2 to 4 at a daily dose of 20 μg/kg, 100 μg/kg or 500 μg/kg. “IGF-1, human, a product name of insulin-like growth factor, commercialized by Assaypro LLC, MO, USA. These administered ingredients were intraperitoneally administered daily to hamsters once a day up to 10-weeks of age. The degree of symptom of cerebellar A and the improvement effect on the symptom by NK-4 were evaluated with an index of improvement in motor coordination of hamsters by conducting once a week the later described rotarod test and the slant tolerance test. At the age of 10-weeks, the hamsters were subjected to counting the falling down frequency and extracted their brains, which were then histologically evaluated. In parallel, the concentration of glutamic acid in the bloods and cerebrospinal fluids (CSF) of the hamsters was assayed. As a test group 6, five normal hamsters, with the same age as the hamsters with cerebellar A used in the test groups 1 to 5, were provided and tested similarly as the hamsters with cerebellar A in such a manner of intraperitoneally administering PBS to them at a dose of 10 ml/kg/day once a day up to 10-weeks of age.
Hamsters were placed on a slope-angle-variable-board while keeping their heads upward, followed by determining the angle for allowing the hamsters to keep staying thereupon for five seconds for use as an endurable-slant-slope-angle test (see Rivlin et al., “J. Neurosurg.”, Vol. 47, pp. 577-581, […]). The initial slope angle was set to 25 degrees and increased by 5 degrees step by step. When a tested hamster in a static condition fell down within five seconds, the slope angle was decreased by one degree step by step, followed by judging the angle that allows the hamster to keep static staying for five seconds, measuring the tolerable slant-slope-angle, and averaging the data for five heads in each group.
(§2) Similarly as in Experiment 2, 130 hamsters with cerebellar ataxia, born within the same week and 3-weeks of age, were randomly divided into 13 groups, consisting of 10 hamsters, respectively. […] The hamsters (10 heads) in the remaining one group were intraperitoneally administered from their age of 3- to 10-weeks with a sterilized 10% maltose solution (pyrogen-free) in an amount of 0.5 ml/hamster (control) once a day for 56 days At the next day after the end of the administration, body weight of each hamster was weighed, followed by performing rotarod test, slope endurance test, and counting of falling down frequency. The types of compounds applied to each group and the results are in Table 25.

[2] = test system: hamsters with cerebellar ataxia; assay: Falling down frequency of hamsters with cerebellar ataxia; type: in vivo, hamster; conditions: hamster with cerebellar ataxia; agent of Example 1, 0.5 ml/hamster intraperitoneally once a day for 56 days
From the text: as §1
Hamsters, 10-weeks of age, were respectively housed in a breeding cage. Their falling down frequencies within one minute were counted under a macroscopic observation and the data from five heads in each group were averaged. For reference, the hamsters with cerebellar A used in this experiment are known to increase their falling down frequencies after nine weeks of age.
as §2

PC12-HS cells = assay: Evaluation A: neurocyte (cell)-growth-promoting action, ALAMAR BLUE; type: cell-based, rat
[3] = test system: ICR mice administered with amyloid β fragment; assay: Degeneration or defect of hippocampal pyramidal cells, mouse administered with amyloid β fragment, agents of Example 1; type: in vivo; conditions: 4-point grade score none (0) to severe (3), average of 10 mice; agent of Example 1, 0.3 ml/head intraperitoneally once a day up to the 8th day
Experimental: One hundred and thirty ICR mice (commercialized by Charles Liver Laboratories Japan Inc., Kanagawa, Japan) were randomly divided into 13 groups, consisting of 10 mice in each group. Amyloid β fragment, represented by an amino acid sequence of SEQ ID NO: 1, used in Experiment 3 was aged at 37° C. for four days, and administered to the lateral ventricle of each mouse in an amount of 9 nmol/6 μl/mouse (the administration method is referred to “Brain Research”, Vol. 706, pp. 181-193 (1996)). […] The mice (10 heads) in the remaining one group were intraperitoneally administered with a sterilized 10% maltose solution (pyrogen-free) once a day up to the 8th day in an amount of 0.3 ml/mouse (control). On the 8th day after the administration, novel object recognition test (see, Japanese Patent Kokai No. 2008-193941) was performed and the average discrimination index (the ratio of prolonged seeking time for novel object to the total seeking time) as a cognitive function index were shown in Table 26. On the 9th day after the administration, the brain of the mice was anatomically isolated, prepared into tissue samples in conventional manner. Depositions of aggregation of amyloid fragment were observed by staining with Congo red or thioflavin T, and degeneration or defect of hippocampal pyramidal cells concerned with cognitive function. The degeneration or the defect of hippocampal pyramidal cells was evaluated by 4-point grade score, by regarding the condition of the control without administration of amyloid β fragment as “none (O)”, “slight (1)”, “moderate (2)”, and “sever (3)”, and the average scores of 10 mice are shown in Table 20.

[4] = compound concentration 25 ng/ml
[5] = compound concentration 50 ng/ml
[6] = compound concentration 100 ng/ml
[7] = compound concentration 200 ng/ml

CCCCN1C=C/C(=C/C=C(/C=C/c2cc[n+](CCCC)c3ccccc23)c2cc[n+](CCCC)c3ccccc23)c2ccccc21 [NK-26]
Endurable-slant-slope-angle (°) [1]: 53.5 ± 1.3 ° | Falling down frequency (count/min) [2]: 1.0 ± 0.7 count/min | Action of enhancing cell growth (%) (PC12-HS cells; [4]): 275 ± 19% | Action of enhancing cell growth (%) (PC12-HS cells; [5]): 357 ± 35% | Action of enhancing cell growth (%) (PC12-HS cells; [6]): 210 ± 12% | Action of enhancing cell growth (%) (PC12-HS cells; [7]): 210 ± 12% | Degeneration/defluxion of hippocampal pyramidal cell [3]: 1.1

CCCCCCCN1C=CC(=CC=C(C=Cc2cc[n+](CCCCCCC)c3ccccc23)c2cc[n+](CCCCCCC)c3ccccc23)c2ccccc21.[I-].[I-] [NK-28]
Endurable-slant-slope-angle (°) [1]: 51.4 ± 2.2 ° | Falling down frequency (count/min) [2]: 1.3 ± 0.9 count/min | Action of enhancing cell growth (%) (PC12-HS cells; [4]): 146 ± 10% | Action of enhancing cell growth (%) (PC12-HS cells; [5]): 111 ± 28% | Action of enhancing cell growth (%) (PC12-HS cells; [6]): 252 ± 65% | Action of enhancing cell growth (%) (PC12-HS cells; [7]): 470 ± 17% | Degeneration/defluxion of hippocampal pyramidal cell [3]: 1.4

CCCCCCCCN1C=CC(=CC=C(C=Cc2cc[n+](CCCCCCCC)c3ccccc23)c2cc[n+](CCCCCCCC)c3ccccc23)c2ccccc21.[I-].[I-] [NK-147]
Endurable-slant-slope-angle (°) [1]: 49.3 ± 2.1 ° | Falling down frequency (count/min) [2]: 1.5 ± 0.8 count/min | Action of enhancing cell growth (%) (PC12-HS cells; [4]): 122 ± 14% | Action of enhancing cell growth (%) (PC12-HS cells; [5]): 136 ± 30% | Action of enhancing cell growth (%) (PC12-HS cells; [6]): 163 ± 60% | Action of enhancing cell growth (%) (PC12-HS cells; [7]): 404 ± 76% | Degeneration/defluxion of hippocampal pyramidal cell [3]: 1.5
